Measurements reported in patent publication US8492614B2, “Plant biochemical systems and uses thereof” (The Board of Trustees of the University of Illinois, priority 2007, dated 2013).
“Also recorded” adds a separate entry of the source. Where two headings read alike, the source gives them in different places.

What was measured:
soybean = assay: Long-term growth and seed yield of UV-treated soybean supplemented with Phe; type: in vivo, soybean (Glycine max L.); conditions: Phe supplement before UV (300 nm) on day 3, grown to seed set
Experimental: Referring to FIG. 22, it was shown that treating soybean with Phe reverses the negative effects of UV-radiation. Seedlings were grown identically to that described for FIGS. 13 and 14, where soybean were supplemented with Phe (+Phe) or not (−Phe). Soybean were grown to seed set in greenhouse conditions where growth characteristics and evaluation of pods and seeds occurred during and after ripening.

[1] = test system: etiolated Arabidopsis seedlings; assay: Cotyledon natural fluorescence by deconvoluting microscopy; type: in vivo; conditions: 1.0 mM Phe in medium; salt stress; mutant seedlings; listed as Phe
Experimental: Fluorescent images were obtained of living unfixed seedlings 24 h post BL or ABA treatment as described in the “Plant Growth and Preparation of Tissue” section. Optical sectioning was achieved by using a Zeiss Axiovert 200M microscope (Carl Zeiss), equipped with ApoTome (collected by grid projection), and a digital camera and the 4#,6-diamino-phenylindole, fluorescein isothiocyanate, and Texas Red filter sets (Chroma). Photographs of whole cotyledon fluorescence were snapped on the same microscope set up, minus the apoTome setting.
The preparation of whole cell extracts from the areal portions of the seedlings for the quantification of Phe levels and PD1 activity levels is described in (Warpeha et al., Plant Physiol. 143:1590-1600, 2007). Phe concentration is determined by HPLC. […] Natural fluorescence of the cotyledons is visualized and quantitated by deconvoluting microscopy using a “DAPI-Long Pass” filter which allows excitation between 300-380 nm and emits with a cutoff […] 400 nm.
If the Phe produced by activated PD1 is necessary for the ability of young etiolated seedlings to respond to UV-B, salt or heat stress, then it is possible that the addition of exogenous Phe (effectively cross feeding Phe) could restore a wild type response to GCR1, GPA1 and PD1 mutants when assayed for cotyledon fluorescence and the ability to survive sub-lethal levels of UV-C. To determine if exogenous Phe can restore wild type responses to GCR1, GPA, and PD1 mutants, 1 mM Phe is added to the top agar during planting and the experiment described above specifically testing for cotyledon surface fluorescence and the ability to survive sub-lethal levels of UV-C is repeated. Serine and […] are used as negative controls in these assays.
The experiments described above for examining if GCR1, GPA1 and PD1 are required for young etiolated seedlings to respond to UV-B, salt or heat stress are performed but with ABA, ACC, JA and SA substituting for UV-B, salt and heat. For these experiments, ABA is tested at 1.0 μM dissolved in ethanol and applied as an atomized mist. […]

[2] = Stability of absorbance spectra of cell free extracts with or without phenylalanine; type: physicochemical, Arabidopsis; conditions: for stability of the extract solution (absorbance spectra, pigments) over time: cell free extracts in buffer, 24 h, room temperature or +4° C., lab lighting
Experimental: Cell free extracts were left at room temperature for 24 h after a 10^5 μmol m^−2 treatment of UV (366 nm) in lab lighting (which is fluorescent).

[3] = biological target: T1, prephenate dehydratase (PD1) (Arabidopsis thaliana, UniProt Q9ZUY3); assay: Prephenate dehydratase activity in Arabidopsis cell free extracts; type: biochemical; conditions: pre-incubation in various concentrations
T1 construct: from tissue; host or cells: aerial portions of etiolated (dark-grown) wild-type Col Arabidopsis seedlings; crude cell-free / cytosolic extract
T1 sequence (Q9ZUY3 25-424): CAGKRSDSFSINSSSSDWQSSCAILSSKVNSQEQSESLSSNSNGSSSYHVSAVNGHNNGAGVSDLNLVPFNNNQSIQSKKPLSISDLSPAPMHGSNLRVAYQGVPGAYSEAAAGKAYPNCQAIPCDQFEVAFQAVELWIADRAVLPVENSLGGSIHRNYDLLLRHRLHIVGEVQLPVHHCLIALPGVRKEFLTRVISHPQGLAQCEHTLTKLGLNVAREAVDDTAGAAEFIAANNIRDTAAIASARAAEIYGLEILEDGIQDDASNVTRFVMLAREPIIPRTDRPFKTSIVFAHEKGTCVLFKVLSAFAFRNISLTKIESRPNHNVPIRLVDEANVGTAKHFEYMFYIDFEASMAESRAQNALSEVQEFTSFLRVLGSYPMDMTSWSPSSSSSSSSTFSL
Experimental: 143:1590-1600). […] Absorbance and stability characteristics are tested at different pH concentrations between 6.8-8.0. Absorbance and stability characteristics are tested at different temperatures and durations of storage on the pigments and phenylalanine characteristics in solution for Arabidopsis and this is done for all crop plant types tested. The aerial portions of six-day-old dark grown Arabidopsis seedlings were harvested into potassium phosphate buffer (pH 7.5; 50 mM), DTT (1 mM), and plant protease cocktail (Sigma), and homogenized for 60 sec at a setting of #6 in a Polytron. Cell debris was removed by centrifugation. All steps were carried out at 4° C. All plants types would be harvested by this method between 6-8 days after planting in darkness. […] Production of phenylpyruvate was determined spectrophotometrically. […] See […] et al., Plant Physiol. 140:844-855.

[4] = pH 7.4
Japanese beetles = assay: Predation on Harosoy soybean grown outside, with or without Phe in the planting media; type: in vivo; conditions: 1 mM Phe in planting media; 300 nm or no light on day 3; 21 d outside; listed as Phe
Experimental: As Phe is the starting substrate of the phenylpropanoid pathway it may be that inclusion of Phe in the growth media of young seedlings allows for the synthesis of many phenylpropanoids in addition to those that can act as UV-B screening pigments, and thereby prevent the deleterious effects other abiotic and biotic stress. To test this hypothesis we planted sets of seeds of Harosoy dense and Harosoy glabrous. Planting media for one set of plants of each isoline was supplemented with 1 mM final concentration of Phe. Three d after planting, germinating sets of seedlings were irradiated with a low fluence pulse of 300 nm (i.e. an abiotic stress), or no light (Untreated), then transplanted outside to grow in natural conditions for 21 d during the normal growing season. A random planting pattern for was generated for the six One leaf from the first set of leaves and one leaf (the middle of the trifoliate) from the second set of leaves was harvested on day 21. These leaves were each weighed directly (fresh weight) and scanned to have a pictorial representation of the experienced damage as shown in FIG. 28. […] Comparison among the six variations indicates predation mainly on the glabrous (hairless) plants.

[5] = test system: etiolated Arabidopsis gcr1, gpa1 or pd1 mutants; assay: UV sensitivity of etiolated Arabidopsis mutants with phenylalanine added to the growth media; type: in vivo
[6] = test system: glabrous soybean seedlings; assay: UV sensitivity of glabrous versus dense-hair soybean isolines; type: in vivo; conditions: few-hair (glabrous) variety, small amounts of UV
Experimental: Varieties that show sensitivity to UV are retained for more detailed testing of responses to UV and exogenous regulators. […] As isoline of hard soy with dense hairs was tested vs. hard soy with few (glafrous) hairs. […] Isogenic lines of Harasoy “dense” (many hairs per area) and “glabrous” (few or no hairs per area) were used to see if hairs themselves directly assisted in protection from UV-B radiation. Seedlings were grown and treated in the same manner as that shown in FIG. 18, then the integrity of the internal structures assessed by TEM as shown in FIG. 18.

N[C@@H](Cc1ccccc1)C(=O)O [phenylalanine]
long-term growth, seed set and seed yield after UV treatment (soybean): can reverse the negative effect on yield of UV; also recorded: serves a protective role to the plant in permitting the plant to achieve adult stage and seed set
long-term growth, seed set and seed yield after UV treatment (soybean; listed as Phe): indistinguishable from untreated seedlings; also recorded: reversal of the negative effects of UV-radiation
restoration of cotyledon surface fluorescence in mutants [1]: can restore the responses in the mutants to those observed for wild type seedlings; also recorded: can restore wild type responses to AGB1 and AGG1 mutants
stability of the extract solution (absorbance spectra, pigments) over time [2]: remain stable over time; also recorded: clear difference in stability in the solution when phenylalanine is added
stability of the extract solution (absorbance spectra, pigments) over time ([2]; listed as Phenylalanine): remained stable
deviation from initial 24 h post absorbance spectra ([2]; extracts with phenylalanine added, UV (366 nm) treated, stored at +4° C. for 4 days): less than 10%
effect of pre-incubation on the reaction producing phenylalanine [3]: inhibited
degradation in buffered solution [4]: appeared to not degrade even for days
predation on leaves (Japanese beetles): experienced less predation; also recorded: can be reduced
rescue of UV sensitivity of mutants [5]: can rescue gcr1, gpa1 or pd1 mutants
rescue of UV sensitivity of mutants ([5]; listed as Phe): restores waxes, fatty acids, UV-absorbing materials and restores resistance to UV damage in pd1 mutants; also recorded: able to respond to UV like wild type
correction of UV damage in the glabrous variety [6]: can correct these deficiencies
